Measured values: ChEMBL document CHEMBL3039007, “Structure-based identification of OATP1B1/3 inhibitors” (Mol Pharmacol, 2013)

Tests used:
[1] = molecular target: T1, Solute carrier organic anion transporter family member 1B3 (Homo sapiens, UniProt Q9NPD5); details: chinese hamster, cho, 10 µM
T1 sequence (Q9NPD5 whole entry): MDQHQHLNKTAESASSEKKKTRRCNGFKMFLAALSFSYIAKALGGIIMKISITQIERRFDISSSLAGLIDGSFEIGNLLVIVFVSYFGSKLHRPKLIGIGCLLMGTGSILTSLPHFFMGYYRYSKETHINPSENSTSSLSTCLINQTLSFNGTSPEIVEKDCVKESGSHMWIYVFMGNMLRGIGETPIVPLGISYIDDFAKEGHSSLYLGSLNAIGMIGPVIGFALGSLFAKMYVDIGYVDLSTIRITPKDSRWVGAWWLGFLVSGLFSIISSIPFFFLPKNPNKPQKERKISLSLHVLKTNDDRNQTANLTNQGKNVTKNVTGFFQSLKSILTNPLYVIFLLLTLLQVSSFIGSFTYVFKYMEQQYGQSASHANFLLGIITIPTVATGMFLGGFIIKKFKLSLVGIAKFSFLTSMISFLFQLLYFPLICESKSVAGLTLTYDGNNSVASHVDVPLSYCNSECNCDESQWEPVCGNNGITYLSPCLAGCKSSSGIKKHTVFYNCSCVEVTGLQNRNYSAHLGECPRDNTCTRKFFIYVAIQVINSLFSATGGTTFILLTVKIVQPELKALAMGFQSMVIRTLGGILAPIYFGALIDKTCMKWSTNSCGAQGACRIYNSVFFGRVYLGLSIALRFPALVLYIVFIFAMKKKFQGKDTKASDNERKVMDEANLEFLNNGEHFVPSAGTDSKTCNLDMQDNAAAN

[2] = molecular target: T2, Solute carrier organic anion transporter family member 1B1 (Homo sapiens, UniProt Q9Y6L6); details: chinese hamster, cho, 10 µM
T2 sequence (Q9Y6L6 whole entry): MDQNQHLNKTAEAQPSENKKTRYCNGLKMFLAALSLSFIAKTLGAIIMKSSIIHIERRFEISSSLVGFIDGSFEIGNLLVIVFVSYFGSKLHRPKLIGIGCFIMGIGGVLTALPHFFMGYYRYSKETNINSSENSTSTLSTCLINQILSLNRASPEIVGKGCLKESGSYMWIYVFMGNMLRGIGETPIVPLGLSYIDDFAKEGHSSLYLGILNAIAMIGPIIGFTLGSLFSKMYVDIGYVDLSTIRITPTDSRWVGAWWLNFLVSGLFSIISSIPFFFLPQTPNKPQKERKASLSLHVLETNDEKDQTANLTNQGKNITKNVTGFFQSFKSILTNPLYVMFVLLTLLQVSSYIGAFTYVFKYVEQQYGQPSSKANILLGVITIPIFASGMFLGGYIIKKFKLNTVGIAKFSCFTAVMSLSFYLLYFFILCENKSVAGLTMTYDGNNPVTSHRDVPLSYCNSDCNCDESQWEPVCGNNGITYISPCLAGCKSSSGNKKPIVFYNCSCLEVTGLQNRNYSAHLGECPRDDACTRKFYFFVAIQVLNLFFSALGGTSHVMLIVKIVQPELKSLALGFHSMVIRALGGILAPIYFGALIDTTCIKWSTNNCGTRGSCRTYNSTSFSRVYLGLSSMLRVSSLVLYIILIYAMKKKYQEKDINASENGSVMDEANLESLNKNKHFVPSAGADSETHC

COC(=O)C[C@H]1C(C)(C)C2(O)OC34CC2C(=O)[C@]1(C)C3CC[C@]1(C)C4=CC(=O)O[C@H]1c1ccoc1 (stereo partly drawn) [8beta-HYDROXYCARAPIN, 3,8-HEMIACETAL]
residual activity [1]: 49.62%
residual activity [2]: 28.54%

C[C@]12CCC(=O)C=C1CCc1ccc(O)cc12 [12-HYDROXY-4,4-BISNOR-4,8,11,13-PODOCARPATETRAEN-3-ONE]
residual activity [1]: 82.18%
residual activity [2]: 47.54%

COc1ccc2c(c1)[C@@]1(C)CC[C@@H](O)C[C@@H]1CC2 [12-METHOXY-4,4-BISNOR-5alpha-8,11,13-PODOCARPATRIEN-3-OL]
residual activity [1]: 91.61%
residual activity [2]: 95.25%

COc1ccc2c(c1)OC1(O)COc3cc(OC)c(OC)cc3C1=C2 (centres undefined) [12a-HYDROXY-5-DEOXYDEHYDROMUNDUSERONE]
residual activity [1]: 119.6%
residual activity [2]: 102.5%

COc1cc2c(cc1OC)C1(O)C(=O)c3ccc(O)c(C(=O)O)c3OC1CO2 (centres undefined) [12a-HYDROXY-9-DEMETHYLMUNDUSERONE-8-CARBOXYLIC ACID]
residual activity [1]: 86.59%
residual activity [2]: 215.8%

Cc1ccc2c(c1)CC[C@H]1CC(=O)CC[C@]21C [13-METHYL-4,4-BISNOR-8,11,13-PODOCARPATRIEN-3-ONE]
residual activity [1]: 93.8%
residual activity [2]: 162.9%

COc1cccc2c1CCC1=CC(=O)CC[C@@]12C [14-METHOXY-4,4-BISNOR-4,8,11,13-PODOCARPATETRAEN-3-ONE]
residual activity [1]: 94.94%
residual activity [2]: 143.1%

COc1cccc2c1CCC1CC(=O)CC[C@]21C (some centres undefined) [14-METHOXY-4,4-BISNOR-8,11,13-PODOCARPATRIEN-3-ONE]
residual activity [1]: 100.9%
residual activity [2]: 118%

C/C1=C\CCC(=O)C2CC(C)(C)C2CC1 (centres undefined) [15-NORCARYOPHYLLEN-3-ONE]
residual activity [1]: 90.82%
residual activity [2]: 72.07%

COC(=O)C[C@H]1C(C)(C)C(=O)[C@H]2CC3=C4CC(OC)O[C@@H](c5ccoc5)[C@@]4(C)CCC3[C@]1(C)C2=O (some centres undefined) [16-DEOXOMEXICANOLIDE 16-METHYL ETHER]
residual activity [1]: 141.6%
residual activity [2]: 53.47%

CC(C)c1ccc2c(c1)CCC1[C@](C)(CN)CCC[C@]21C.O=S(=O)(O)O (some centres undefined) [18-AMINOABIETA-8,11,13-TRIENE SULFATE]
residual activity [1]: 99.03%
residual activity [2]: 102.4%

CC(C)c1c(O)ccc2c1CC[C@H]1[C@@](C)(CO)CCC[C@]21C [19-HYDROXYTOTAROL]
residual activity [1]: 20.52%
residual activity [2]: 15.89%

CC(C)(O)CC[C@@H](O)[C@](C)(O)[C@H]1CC[C@@]2(O)C3=CC(=O)[C@@H]4C[C@@H](O)[C@@H](O)C[C@]4(C)[C@H]3CC[C@]12C [20-HYDROXYECDYSONE]
residual activity [1]: 127.1%
residual activity [2]: 115%

C[C@H](N)[C@H](O)c1ccccc1 [(1R,2S)-PHENYLPROPANOLAMINE]
residual activity [1]: 87%
residual activity [2]: 97.41%

CC(=O)C1=C(O)C=C2Oc3c(C(C)=O)c(O)c(C)c(O)c3[C@@]2(C)C1=O [(+)-USNIC ACID]
residual activity [1]: 69.13%
residual activity [2]: 31.05%

Oc1cc(O)c2c(c1)O[C@H](c1ccc(O)c(O)c1)[C@H](O)C2 [(-)-EPICATECHIN]
residual activity [1]: 77.92%
residual activity [2]: 80.37%

CN[C@@H](Cc1c[nH]c2ccccc12)C(=O)O [ABRINE]
residual activity [1]: 98.3%
residual activity [2]: 86.73%

COc1ccc(-c2cc(=O)c3c(OC(C)=O)cc(OC(C)=O)cc3o2)cc1 [ACACETIN DIACETATE]
residual activity [1]: 127.6%
residual activity [2]: 133.5%

CCCC(=O)Nc1ccc(OCC(O)CNC(C)C)c(C(C)=O)c1.Cl (centres undefined) [ACEBUTOLOL HYDROCHLORIDE]
residual activity [1]: 93.16%
residual activity [2]: 74.42%

CCN(CC)CCNC(=O)c1ccc(NC(C)=O)cc1.Cl [ACECAINIDE HYDROCHLORIDE]
residual activity [1]: 90.6%
residual activity [2]: 70.32%

COc1ccc2c(c1)c(CC(=O)OCC(=O)O)c(C)n2C(=O)c1ccc(Cl)cc1 [ACEMETACIN]
residual activity [1]: 84.99%
residual activity [2]: 57.75%

COP(=O)(NC(C)=O)SC (centres undefined) [ACEPHATE]
residual activity [1]: 83.6%
residual activity [2]: 75.83%

CC(=O)Nc1ccc(O)cc1 [ACETAMINOPHEN]
residual activity [1]: 96.68%
residual activity [2]: 99.98%

CC(=O)Nc1ccc(OC(=O)c2ccccc2O)cc1 [ACETAMINOSALOL]
residual activity [1]: 102.7%
residual activity [2]: 103.1%

CC(=O)Nc1ccccc1 [ACETANILIDE]
residual activity [1]: 100.2%
residual activity [2]: 96.78%

CC(=O)Nc1cc([As](=O)(O)O)ccc1O [ACETARSONE]
residual activity [1]: 85.71%
residual activity [2]: 58.73%

CC(=O)Nc1nnc(S(N)(=O)=O)s1 [ACETAZOLAMIDE]
residual activity [1]: 84.51%
residual activity [2]: 90.74%

CCOCN(C(=O)CCl)c1c(C)cccc1CC [ACETOCHLOR]
residual activity [1]: 84.4%
residual activity [2]: 74.59%

CC(=O)NO [ACETOHYDROXAMIC ACID]
residual activity [1]: 100.9%
residual activity [2]: 91.26%

COc1cc(C(C)=O)cc(OC)c1O [ACETOSYRINGONE]
residual activity [1]: 115.4%
residual activity [2]: 104.7%

CC(=O)Nc1c(I)cc(I)c(C(=O)O)c1I [ACETRIZOIC ACID]
residual activity [1]: 98.63%
residual activity [2]: 133.1%

CC(=O)O[C@H]1CC[C@]2(C)[C@H]3CC=C4[C@@H]5CC(C)(C)CC[C@]5(C(=O)O)CC[C@@]4(C)[C@]3(C)CC[C@H]2C1(C)C [ACETYL OLEANOLIC ACID]
residual activity [1]: 24.66%
residual activity [2]: 37.04%

CCOC(=O)C(Cc1ccc(O)cc1)NC(C)=O (centres undefined) [ACETYL TYROSINE ETHYL ESTER]
residual activity [1]: 103.5%
residual activity [2]: 118.5%

CC(=O)N[C@@H](CS)C(=O)O [ACETYLCYSTEINE]
residual activity [1]: 89.21%
residual activity [2]: 82.21%

CC(=O)NCCc1c[nH]c2ccc(O)cc12 [ACETYLSEROTONIN]
residual activity [1]: 91.29%
residual activity [2]: 100.7%

CC(=O)N[C@@H](Cc1c[nH]c2ccccc12)C(N)=O [ACETYLTRYPTOPHANAMIDE]
residual activity [1]: 60.38%
residual activity [2]: 85.16%

CC(=O)N[C@@H](Cc1c[nH]c2ccccc12)C(=O)O [ACETYLTRYPTOPHAN]
residual activity [1]: 85.99%
residual activity [2]: 63.36%

CC(=O)NCCCCCC(=O)O [ACEXAMIC ACID]
residual activity [1]: 111.3%
residual activity [2]: 144.2%

N[C@H](C(=O)O)[C@@H]1CC(Cl)=NO1 [ACIVICIN]
residual activity [1]: 113.3%
residual activity [2]: 137.7%

CC[C@@]1(O)C[C@H](O[C@H]2C[C@H](N(C)C)[C@H](O[C@H]3C[C@H](O)[C@H](O[C@H]4CCC(=O)[C@H](C)O4)[C@H](C)O3)[C@H](C)O2)c2c(cc3c(c2O)C(=O)c2c(O)cccc2C3=O)[C@H]1C(=O)OC [ACLARUBICIN]
residual activity [1]: 107.1%
residual activity [2]: 95.52%

O=C(O)/C=C(\CC(=O)O)C(=O)O [ACONITIC ACID]
residual activity [1]: 88.62%
residual activity [2]: 102.5%

CCN1C[C@]2(COC)[C@H](O)C[C@H](OC)[C@@]34[C@@H]5C[C@@]6(O)[C@H](OC(=O)c7ccccc7)[C@@H]5[C@@](OC(C)=O)([C@@H]([C@H](OC)[C@H]23)[C@@H]14)[C@@H](O)[C@@H]6OC [ACONITINE]
residual activity [1]: 85.31%
residual activity [2]: 65.77%
